{
  "source": "paper PMC8279416",
  "about": "“Structural Fine-Tuning of Desmuramylpeptide NOD2 Agonists Defines Their In Vivo Adjuvant Activity” (Journal of Medicinal Chemistry, 2021)",
  "molecular_target": "T1, NOD2 (Homo sapiens, UniProt Q9HC29)",
  "T1 construct": "host or cells: HEK-Blue NOD2 cells (HEK293-derived)",
  "T1 sequence (Q9HC29 whole entry)": "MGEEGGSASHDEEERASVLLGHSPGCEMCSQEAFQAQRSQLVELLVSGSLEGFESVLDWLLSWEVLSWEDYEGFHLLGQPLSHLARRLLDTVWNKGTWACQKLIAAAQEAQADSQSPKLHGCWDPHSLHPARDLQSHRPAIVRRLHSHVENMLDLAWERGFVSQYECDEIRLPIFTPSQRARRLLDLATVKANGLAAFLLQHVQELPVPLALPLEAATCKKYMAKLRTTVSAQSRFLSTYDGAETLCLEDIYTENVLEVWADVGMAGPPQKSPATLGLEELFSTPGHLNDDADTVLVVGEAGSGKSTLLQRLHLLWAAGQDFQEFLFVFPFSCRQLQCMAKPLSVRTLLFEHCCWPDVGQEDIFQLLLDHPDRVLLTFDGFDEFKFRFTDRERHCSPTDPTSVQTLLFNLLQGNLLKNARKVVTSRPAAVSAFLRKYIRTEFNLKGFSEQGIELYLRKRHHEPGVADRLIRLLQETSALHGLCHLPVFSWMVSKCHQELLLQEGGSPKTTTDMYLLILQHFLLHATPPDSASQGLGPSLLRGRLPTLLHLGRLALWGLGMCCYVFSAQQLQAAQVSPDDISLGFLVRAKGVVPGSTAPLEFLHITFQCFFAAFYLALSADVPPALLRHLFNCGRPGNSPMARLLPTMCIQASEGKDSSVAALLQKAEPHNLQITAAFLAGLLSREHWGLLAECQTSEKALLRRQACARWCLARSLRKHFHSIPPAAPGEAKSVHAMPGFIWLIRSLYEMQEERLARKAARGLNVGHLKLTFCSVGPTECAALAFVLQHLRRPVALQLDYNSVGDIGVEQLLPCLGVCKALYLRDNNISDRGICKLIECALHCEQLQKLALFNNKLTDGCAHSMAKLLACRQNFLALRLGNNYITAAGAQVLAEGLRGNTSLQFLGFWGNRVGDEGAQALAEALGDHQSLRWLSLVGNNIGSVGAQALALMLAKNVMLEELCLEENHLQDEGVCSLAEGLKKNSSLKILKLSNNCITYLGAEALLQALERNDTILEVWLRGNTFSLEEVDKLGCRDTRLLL",
  "experiment": "HEK-Blue NOD2 cell line reporter assay (NF-κB-inducible SEAP)",
  "assay_type": "cell-based",
  "conditions": "for NOD2 activity at 2 μM (fold increase) / EC50: HEK-Blue NOD2 cells; for NOD2 activity at 2 μM (fold increase): NF-κB transcriptional (SEAP) activity relative to 0.1% DMSO",
  "experimental": "To determine the NOD2 agonistic potential of the synthesized desmuramylpeptides at the cellular level, we used the validated and commercially available HEK-Blue NOD2 cell line reporter assay. HEK-Blue NOD2 cells were first treated for 18 h with MDP, 1, or the novel desmuramylpeptides at 2 μM. The NF-κB transcriptional activity measured was normalized to that of the vehicle treated (0.1% DMSO) control HEK-Blue NOD2 cells.\nHEK-Blue NOD2 and NOD1 cell line reporter assays are derived from HEK293 cells by cotransfection of the hNOD2 or hNOD1 genes, respectively, and an NF-κB-inducible secreted embryonic alkaline phosphatase (SEAP) reporter gene. Following activation of NOD2 or NOD1, the resulting NF-κB induces production of SEAP, the levels of which can be quantified colorimetrically. […] After 18 h of incubation (37 °C, 5% CO2), secreted embryonic alkaline phosphatase (SEAP) activity was determined spectrophotometrically as absorbance at 630 nm (BioTek Synergy microplate reader; Winooski, VT, U.S.A.). EC50 values were calculated using Prism software (version 9; GraphPad Software, CA, U.S.A.). For determination of specificity, HEK-Blue NOD2 cells (2.5 × 10^5 cells/mL) were first pretreated for 1 h with a 10 μM NOD2 antagonist, before the addition of the compounds (2 μM), with incubation for 18 h. SEAP activity in the supernatants was determined as above. The experiments were run in duplicate and repeated as at least two independent biological replicates.",
  "key": {"[1]": {"conditions": "18 h, 7 or 8 concentrations 1 nM to 20 μM, mean ± SEM"}},
  "note": "Several values for one entry are separate records, joined by “and”; a condition that tells them apart may be missing. Equal values may be shown once.",
  "data": [
    {"compound": "CCOC(=O)CC[C@@H](NC(=O)[C@@H](NC(=O)CNC(=O)/C=C/c1ccc(N)cc1)C(C)C)C(=O)OCC", "note": "[Compound 24, Diethyl ((E)-3-(4-Aminophenyl)acryloyl)glycyl-L-valyl-D-glutamate]", "values": [
      {"measurement": "NOD2 activity at 2 μM (fold increase)", "setting": "18 h, mean ± SEM", "result": "2.45 ± 0.18", "unit": "fold increase"},
      {"measurement": "EC50", "setting": "[1]", "result": "0.542 ± 0.048", "unit": "µM"}
    ]},
    {"compound": "CCOC(=O)CC[C@@H](NC(=O)[C@H](COCc1ccccc1)NC(=O)CNC(=O)/C=C/c1ccc(O)c(OC)c1)C(=O)OCC", "note": "[Compound 30, Diethyl O-Benzyl-N-(((E)-3-(4-hydroxy-3-methoxyphenyl)acryloyl)glycyl)-L-seryl-D-glutamate]", "values": [
      {"measurement": "EC50", "result": 5.56, "unit": "µM"},
      {"measurement": "NOD2 activity at 2 μM (fold increase)", "setting": "18 h, mean ± SEM", "result": "2.04 fold increase and 2.04 ± 0.02 fold increase"},
      {"measurement": "EC50", "setting": "[1]", "result": "5.56 ± 1.47", "unit": "µM"}
    ]},
    {"compound": "CCOC(=O)CC[C@@H](NC(=O)[C@@H](NC(=O)CNC(=O)/C=C/c1ccc(C(C)C)cc1)C(C)C)C(=O)OCC", "note": "[Compound 25, Diethyl ((E)-3-(4-Isopropylphenyl)acryloyl)glycyl-L-valyl-D-glutamate]", "values": [
      {"measurement": "NOD2 activity at 2 μM (fold increase)", "setting": "18 h, mean ± SEM", "result": "2.83 ± 0.06", "unit": "fold increase"},
      {"measurement": "EC50", "setting": "[1]", "result": "0.071 ± 0.004", "unit": "µM"}
    ]},
    {"compound": "CCCCCCCCCCCCCCCCCC(=O)Oc1ccc(/C=C/C(=O)NCC(=O)N[C@H](C(=O)N[C@H](CCC(=O)OC2CCCC2)C(=O)OC2CCCC2)C(C)C)cc1OC", "note": "[Compound 78, Dicyclopentyl ((E)-3-(3-Methoxy-4-(stearoyloxy)phenyl)acryloyl)glycyl-L-valyl-D-glutamate]", "values": [
      {"measurement": "EC50", "result": 6.16, "unit": "µM"},
      {"measurement": "NOD2 activity at 2 μM (fold increase)", "setting": "18 h, mean ± SEM", "result": "1.66 ± 0.11", "unit": "fold increase"},
      {"measurement": "EC50", "setting": "[1]", "result": "6.16 ± 1.16", "unit": "µM"}
    ]},
    {"compound": "CCCCNC(=O)CC[C@@H](NC(=O)[C@@H](NC(=O)CNC(=O)/C=C/c1ccc(O)c(OC)c1)C(C)C)C(=O)OC(C)(C)C", "note": "[Compound 59, tert-Butyl N^5-Butyl-N^2-((E)-3-(4-hydroxy-3-methoxyphenyl)acryloyl)glycyl-L-valyl-D-glutaminate]", "values": [
      {"measurement": "NOD2 activity at 2 μM (fold increase)", "setting": "18 h, mean ± SEM", "result": "1.32 ± 0.05", "unit": "fold increase"}
    ]},
    {"compound": "CCCCCCCCCCCCCCCCCC(=O)NCCCC[C@H](NC(=O)CC[C@@H](NC(=O)[C@@H](NC(=O)CNC(=O)/C=C/c1ccc(O)c(OC)c1)C(C)C)C(=O)OCC)C(=O)OC", "note": "[Compound 82, Methyl N^2-((R)-5-Ethoxy-4-((S)-2-(2-((E)-3-(4-hydroxy-3-methoxyphenyl)acrylamido)acetamido)-3-methylbutanamido)-5-oxopentanoyl)-N^6-stearoyl-L-lysinate]", "values": [
      {"measurement": "EC50", "result": 11.5, "unit": "µM"},
      {"measurement": "NOD2 activity at 2 μM (fold increase)", "setting": "18 h, mean ± SEM", "result": "2.00 ± 0.03", "unit": "fold increase"},
      {"measurement": "EC50", "setting": "[1]", "result": "11.5 ± 3.91", "unit": "µM"}
    ]},
    {"compound": "CCOC(=O)CC[C@@H](NC(=O)[C@@H](NC(=O)CNC(=O)C1CC1c1ccc(OC)c(OC)c1)C(C)C)C(=O)OCC", "note": "(stereo partly drawn) [Compound 27, Diethyl (2-(3,4-Dimethoxyphenyl)cyclopropane-1-carbonyl)glycyl-L-valyl-D-glutamate]", "values": [
      {"measurement": "NOD2 activity at 2 μM (fold increase)", "setting": "18 h, mean ± SEM", "result": "2.63 ± 0.15", "unit": "fold increase"},
      {"measurement": "EC50", "setting": "[1]", "result": "0.322 ± 0.007", "unit": "µM"},
      {"measurement": "Improved potency over 20", "setting": "ratio of EC50 versus compound 20", "result": 2.4, "unit": "fold"}
    ]},
    {"compound": "CONC(=O)CC[C@@H](NC(=O)[C@@H](NC(=O)CNC(=O)/C=C/c1ccc(O)c(OC)c1)C(C)C)C(=O)OC(C)(C)C", "note": "[Compound 60, tert-Butyl N^2-((E)-3-(4-Hydroxy-3-methoxyphenyl)acryloyl)glycyl-L-valyl-N^5-methoxy-D-glutaminate]", "values": [
      {"measurement": "NOD2 activity at 2 μM (fold increase)", "setting": "18 h, mean ± SEM", "result": "1.32 ± 0.02", "unit": "fold increase"}
    ]}
  ]
}
